± gives the expanded uncertainty stated by the source.
Key:
[1] = Crystal
[2] = Molar enthalpy of transition or fusion; conditions: Crystal; DSC

| Normal melting temperature [1] [°C] | Normal melting temperature ([1]; DTA) [°C] | Molar enthalpy of transition or fusion [2] [kcal/mol] | SMILES |
| --- | --- | --- | --- |
| 27.7 ± 0.6 | 28.60 ± 0.39 | 10.5 ± 0.222 | CCCCCCCCCCCC(C)=O [2-tridecanone] |
| 23.5 ± 0.6 |  | 9.02 ± 0.194 | CCCCCCCCCCCCO [dodecan-1-ol] |
| 11.7 ± 0.6 | 12.11 ± 0.39 |  | CCCCCCCCCC(C)=O [2-undecanone] |
| 6.4 ± 0.6 |  | 7.5 ± 0.165 | CCCCCCCCCCO [decan-1-ol] |
| -14.5 ± 0.6 |  | 5.66 ± 0.129 | CCCCCCCCO [octan-1-ol] |
| 21 ± 0.6 | 21.12 ± 0.39 | 9.44 ± 0.201 | CCCCCCCCCCC(C)=O [2-dodecanone] |
| -9.8 ± 0.6 | -9.47 ± 0.39 | 6.54 ± 0.146 | CCCCCCCC(C)=O [2-nonanone] |
| -36 ± 0.6 | -36.6 ± 0.4 | 4.56 ± 0.108 | CCCCCC(C)=O [2-heptanone] |

— the NIST ThermoML archive (doi:10.1021/je100725a)
